Reference: patent US6331646A, “Amorphous N-[N-(3,3-dimethylbutyl)-L-α-aspartyl]-L-phenylalanine 1-methyl ester” (The NutraSweet Co., priority 1999, dated 2001)
Like-named read-outs stand apart in the source and are kept apart here.

Assays:
Sweetening potency = conditions: amorphous neotame; "is believed to have"
[1] = Solubility measurements in several solvent systems; type: physicochemical; conditions: for Solubility, 10:90 EtOH:H2 O: 10:90 Ethanol (EtOH):H2 O; for Solubility, 50:50 EtAc:Hexane: 50:50 Ethyl Acetate (EtAc):Hexane
Experimental: (§1) 25 grams of neotame was spread out equally on six containers and heated slowly past its melting point of about 82° C. until a temperature of about 92° C. was reached. […] Once 92° C. was reached, all of the neotame was melted. The containers containing the neotame were removed from the oven and allowed to cool to room temperature, about 23° C. The neotame was removed from the containers, and ground to a […] powder with a mortar and pestle. The x-ray diffraction pattern of the resulting amorphous neotame is illustrated in FIG. 1. Rates of dissolution and solubility measurements were then determined in several different solvent systems (deionized water; 0.1M phosphate (pH3) in water; 10:90 Ethanol (EtOH):H2 O; and 50:50 Ethyl Acetate (EtAc):Hexane) and compared to the conventional form of the neotame monohydrate.

[2] = Rate of dissolution compared to neotame monohydrate; type: physicochemical; conditions: in a variety of solvents commonly used in the food industry; FIG. 3 and FIG. 4 at 20° C.
Experimental: as §1, with “monohydrate. The solubility results are set forth below:” for “monohydrate.”
FIG. 3 illustrates a comparison of the dissolution of the amorphous neotame of Example 1 with neotame monohydrate in deionized water at 20° C. FIG. 4 illustrates a similar comparison in 0.1 M phosphate buffer.

[3] = known sweetener neotame; cited from earlier work

| Structure (SMILES) | sweetening potency relative to aspartame (believed) (Sweetening potency) | Solubility, 0.1 M Phosphate pH3 ([1]; 0.1M phosphate (pH3) in water) | Solubility, 10:90 EtOH:H2 O [1] | Solubility, 50:50 EtAc:Hexane [1] | Solubility, Water ([1]; deionized water) | solubility compared to that of the monohydrate form ([1]; in a variety of solvents commonly used in the food industry) | rate of dissolution compared to that of the monohydrate form [2] | solubility ([1]; 0.1 m phosphate, pH 3, 0.1M phosphate (pH3) in water, read-out: Solubility, 0.1 M Phosphate pH3) [mg/mL] | solubility ([1]; water, deionized water, read-out: Solubility, Water) [mg/mL] | sweetening potency relative to aspartame [3] | sweetening potency relative to sucrose [3] |
| --- | --- | --- | --- | --- | --- | --- | --- | --- | --- | --- | --- |
| COC(=O)[C@H](Cc1ccccc1)NC(=O)[C@H](CC(=O)O)NCCC(C)(C)C [Example 1, amorphous N-[N-(3,3-dimethylbutyl)-L-α-aspartyl]-L-phenylalanine 1-methyl ester] | around 40 times that of aspartame | 1.49 grams of neotame/100 grams sol | 1.57 grams of neotame/100 grams sol | 3.07 grams of neotame/100 grams sol | 1.35 grams of neotame/100 grams sol | higher solubility | reduced rate of dissolution |  |  |  |  |
| COC(=O)[C@H](Cc1ccccc1)NC(=O)[C@H](CC(=O)O)NCCC(C)(C)C [Neotame Monohydrate, N-[N-(3,3-dimethylbutyl)-L-α-aspartyl]-L-phenylalanine 1-methyl ester] |  |  | 1.55 grams of neotame/100 grams sol | 1.29 grams of neotame/100 grams sol |  |  |  | 13.5 | 12.8 |  |  |
| COC(=O)[C@H](Cc1ccccc1)NC(=O)[C@H](CC(=O)O)NCCC(C)(C)C [Neotame, N-[N-(3,3-dimethylbutyl)-L-α-aspartyl]-L-phenylalanine 1-methyl ester] |  |  |  |  |  |  |  |  |  | about 40 times that of aspartame | about 8,000 times that of sucrose |
